Calls of active or inactive are those of the source. The rule behind the calls is not given here.
Tests used:
[1] = biological target: Epidermal growth factor receptor (Homo sapiens, UniProt P00533, L858R/T790M); assay: Inhibition of recombinant human GST-tagged EGFR L858R/T790M double mutant cytoplasmic domain (668 to 1210 residues) expressed in baculovirus expression system by Z'-Lyte assay
NCI-H1975 [2] = assay: cells; assay type: functional, cell-based, Homo sapiens
A-431 = assay: Antiproliferative activity against EGFR over-expressing human A431 cells after 48 hrs by MTT assay; assay type: functional, cell-based
[3] = biological target: Epidermal growth factor receptor (Homo sapiens, UniProt P00533)
Description: Inhibition of recombinant human GST-tagged EGFR cytoplasmic domain (668 to 1210 residues) expressed in baculovirus expression system by Z'-Lyte assay

L02 = assay: Antiproliferative activity against human HL7702 cells after 48 hrs by MTT assay; assay type: ADME, cell-based
A549 = assay: Antiproliferative activity against human A549 cells harboring wild type EGFR after 48 hrs by MTT assay; assay type: functional, cell-based
[4] = biological target: Epidermal growth factor receptor (Homo sapiens, UniProt P00533, L858R); assay type: cell-based
HCC827 = assay: Antiproliferative activity against human HCC827 cells harboring EGFR E746_A750 deletion mutant after 48 hrs by MTT assay; assay type: functional, cell-based
NCI-H1975 [5] = assay: Induction of ROS generation in human NCI-H1975 cells harboring EGFR L858R/T790M double mutant at 100 uM after 4 hrs by DCFH-DA staining based flow cytometry; assay type: functional, cell-based
NCI-H1975 [6] = assay: Induction of ROS generation in human NCI-H1975 cells harboring EGFR L858R/T790M double mutant at 15 to 60 uM after 4 hrs by DCFH-DA staining based flow cytometry; assay type: functional, cell-based
NCI-H1975 [7] = assay: Induction of ROS generation in human NCI-H1975 cells harboring EGFR L858R/T790M double mutant assessed as fluorescence level at 6 uM after 4 hrs by DCFH-DA staining based flow cytometry; assay type: functional
NCI-H1975 [8] = assay: Induction of apoptosis in human NCI-H1975 cells harboring EGFR L858R/T790M double mutant assessed as necrotic cells at 3 uM after 48 hrs by Annexin V/propidium iodide staining based flow cytometry (reference value: 4.13%); assay type: functional
NCI-H1975 [9] = assay: Induction of apoptosis in human NCI-H1975 cells harboring EGFR L858R/T790M double mutant assessed as necrotic cells at 6 uM after 48 hrs by Annexin V/propidium iodide staining based flow cytometry (reference value: 4.13%); assay type: functional
NCI-H1975 [10] = assay: Induction of apoptosis in human NCI-H1975 cells harboring EGFR L858R/T790M double mutant assessed as early apoptotic cells at 6 uM after 48 hrs by Annexin V/propidium iodide staining based flow cytometry (reference value: 4.1%); assay type: functional
NCI-H1975 [11] = assay: Induction of apoptosis in human NCI-H1975 cells harboring EGFR L858R/T790M double mutant assessed as early apoptotic cells at 9 uM after 48 hrs by Annexin V/propidium iodide staining based flow cytometry (reference value: 4.1%); assay type: functional
NCI-H1975 [12] = assay: Induction of apoptosis in human NCI-H1975 cells harboring EGFR L858R/T790M double mutant assessed as increase in cleaved PARP expression at 2.5 to 10 uM after 24 hrs by Western blot method; assay type: functional, cell-based
NCI-H1975 [13] = assay: Induction of apoptosis in human NCI-H1975 cells harboring EGFR L858R/T790M double mutant assessed as late apoptotic cells at 6 uM after 48 hrs by Annexin V/propidium iodide staining based flow cytometry (reference value: 7.2%); assay type: functional
NCI-H1975 [14] = assay: Induction of apoptosis in human NCI-H1975 cells harboring EGFR L858R/T790M double mutant assessed as early apoptotic cells at 3 uM after 48 hrs by Annexin V/propidium iodide staining based flow cytometry (reference value: 4.1%); assay type: functional
NCI-H1975 [15] = assay: Induction of apoptosis in human NCI-H1975 cells harboring EGFR L858R/T790M double mutant assessed as live cells at 3 uM after 48 hrs by Annexin V/propidium iodide staining based flow cytometry (reference value: 83.5%); assay type: functional
NCI-H1975 [16] = assay: Induction of apoptosis in human NCI-H1975 cells harboring EGFR L858R/T790M double mutant assessed as necrotic cells at 9 uM after 48 hrs by Annexin V/propidium iodide staining based flow cytometry (reference value: 4.13%); assay type: functional
NCI-H1975 [17] = assay: Induction of ROS generation in human NCI-H1975 cells harboring EGFR L858R/T790M double mutant assessed as fluorescence level at 3 uM after 4 hrs by DCFH-DA staining based flow cytometry; assay type: functional
NCI-H1975 [18] = assay: Induction of ROS generation in human NCI-H1975 cells harboring EGFR L858R/T790M double mutant assessed as fluorescence level at 12 uM after 4 hrs by DCFH-DA staining based flow cytometry; assay type: functional
NCI-H1975 [19] = assay: Induction of apoptosis in human NCI-H1975 cells harboring EGFR L858R/T790M double mutant after 48 hrs by Annexin V/propidium iodide staining based flow cytometry; assay type: functional, cell-based
NCI-H1975 [20] = assay: Induction of ROS generation in human NCI-H1975 cells harboring EGFR L858R/T790M double mutant after 4 hrs by DCFH-DA staining based flow cytometry; assay type: functional, cell-based
NCI-H1975 [21] = assay: Induction of apoptosis in human NCI-H1975 cells harboring EGFR L858R/T790M double mutant assessed as late apoptotic cells at 9 uM after 48 hrs by Annexin V/propidium iodide staining based flow cytometry (reference value: 7.2%); assay type: functional
NCI-H1975 [22] = assay: Induction of apoptosis in human NCI-H1975 cells harboring EGFR L858R/T790M double mutant assessed as live cells at 6 uM after 48 hrs by Annexin V/propidium iodide staining based flow cytometry (reference value: 83.5%); assay type: functional
NCI-H1975 [23] = assay: Induction of apoptosis in human NCI-H1975 cells harboring EGFR L858R/T790M double mutant assessed as late apoptotic cells at 3 uM after 48 hrs by Annexin V/propidium iodide staining based flow cytometry (reference value: 7.2%); assay type: functional
NCI-H1975 [24] = assay: Induction of apoptosis in human NCI-H1975 cells harboring EGFR L858R/T790M double mutant assessed as live cells at 9 uM after 48 hrs by Annexin V/propidium iodide staining based flow cytometry (reference value: 83.5%); assay type: functional

Chain of Epidermal growth factor receptor (Homo sapiens, UniProt P00533, L858R) (P00533 25-1210 L858R limits assumed): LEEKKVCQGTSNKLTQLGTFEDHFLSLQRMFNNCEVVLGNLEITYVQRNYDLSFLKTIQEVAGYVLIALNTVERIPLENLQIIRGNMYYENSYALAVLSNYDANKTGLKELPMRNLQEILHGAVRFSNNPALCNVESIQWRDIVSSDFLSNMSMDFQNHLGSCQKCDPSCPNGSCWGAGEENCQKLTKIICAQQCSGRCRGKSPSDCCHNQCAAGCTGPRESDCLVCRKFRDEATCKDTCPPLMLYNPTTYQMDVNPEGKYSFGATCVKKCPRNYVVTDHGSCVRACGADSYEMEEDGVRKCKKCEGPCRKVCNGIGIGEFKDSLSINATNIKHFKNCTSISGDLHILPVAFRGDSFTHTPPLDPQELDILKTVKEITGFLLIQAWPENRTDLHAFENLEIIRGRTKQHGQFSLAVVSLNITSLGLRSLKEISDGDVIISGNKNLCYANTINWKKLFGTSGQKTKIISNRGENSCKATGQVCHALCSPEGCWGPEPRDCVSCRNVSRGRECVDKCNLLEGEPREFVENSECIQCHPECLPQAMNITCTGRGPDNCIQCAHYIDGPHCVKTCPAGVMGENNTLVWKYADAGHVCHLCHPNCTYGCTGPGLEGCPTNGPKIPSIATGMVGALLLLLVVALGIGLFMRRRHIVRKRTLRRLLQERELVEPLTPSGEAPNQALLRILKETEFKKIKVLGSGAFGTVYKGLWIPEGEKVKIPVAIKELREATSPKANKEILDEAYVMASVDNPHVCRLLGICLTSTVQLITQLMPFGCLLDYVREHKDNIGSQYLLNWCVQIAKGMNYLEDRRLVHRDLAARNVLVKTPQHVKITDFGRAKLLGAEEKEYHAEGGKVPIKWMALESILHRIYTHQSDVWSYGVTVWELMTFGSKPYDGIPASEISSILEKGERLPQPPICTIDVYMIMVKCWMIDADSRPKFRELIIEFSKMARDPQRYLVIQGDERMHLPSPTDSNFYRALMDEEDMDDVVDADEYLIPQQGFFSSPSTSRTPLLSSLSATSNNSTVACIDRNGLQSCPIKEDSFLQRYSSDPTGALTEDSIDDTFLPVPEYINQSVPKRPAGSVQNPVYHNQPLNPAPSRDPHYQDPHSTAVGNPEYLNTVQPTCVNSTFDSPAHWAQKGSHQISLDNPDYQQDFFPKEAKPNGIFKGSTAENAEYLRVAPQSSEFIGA
Chain of Epidermal growth factor receptor (Homo sapiens, UniProt P00533) (P00533 whole entry): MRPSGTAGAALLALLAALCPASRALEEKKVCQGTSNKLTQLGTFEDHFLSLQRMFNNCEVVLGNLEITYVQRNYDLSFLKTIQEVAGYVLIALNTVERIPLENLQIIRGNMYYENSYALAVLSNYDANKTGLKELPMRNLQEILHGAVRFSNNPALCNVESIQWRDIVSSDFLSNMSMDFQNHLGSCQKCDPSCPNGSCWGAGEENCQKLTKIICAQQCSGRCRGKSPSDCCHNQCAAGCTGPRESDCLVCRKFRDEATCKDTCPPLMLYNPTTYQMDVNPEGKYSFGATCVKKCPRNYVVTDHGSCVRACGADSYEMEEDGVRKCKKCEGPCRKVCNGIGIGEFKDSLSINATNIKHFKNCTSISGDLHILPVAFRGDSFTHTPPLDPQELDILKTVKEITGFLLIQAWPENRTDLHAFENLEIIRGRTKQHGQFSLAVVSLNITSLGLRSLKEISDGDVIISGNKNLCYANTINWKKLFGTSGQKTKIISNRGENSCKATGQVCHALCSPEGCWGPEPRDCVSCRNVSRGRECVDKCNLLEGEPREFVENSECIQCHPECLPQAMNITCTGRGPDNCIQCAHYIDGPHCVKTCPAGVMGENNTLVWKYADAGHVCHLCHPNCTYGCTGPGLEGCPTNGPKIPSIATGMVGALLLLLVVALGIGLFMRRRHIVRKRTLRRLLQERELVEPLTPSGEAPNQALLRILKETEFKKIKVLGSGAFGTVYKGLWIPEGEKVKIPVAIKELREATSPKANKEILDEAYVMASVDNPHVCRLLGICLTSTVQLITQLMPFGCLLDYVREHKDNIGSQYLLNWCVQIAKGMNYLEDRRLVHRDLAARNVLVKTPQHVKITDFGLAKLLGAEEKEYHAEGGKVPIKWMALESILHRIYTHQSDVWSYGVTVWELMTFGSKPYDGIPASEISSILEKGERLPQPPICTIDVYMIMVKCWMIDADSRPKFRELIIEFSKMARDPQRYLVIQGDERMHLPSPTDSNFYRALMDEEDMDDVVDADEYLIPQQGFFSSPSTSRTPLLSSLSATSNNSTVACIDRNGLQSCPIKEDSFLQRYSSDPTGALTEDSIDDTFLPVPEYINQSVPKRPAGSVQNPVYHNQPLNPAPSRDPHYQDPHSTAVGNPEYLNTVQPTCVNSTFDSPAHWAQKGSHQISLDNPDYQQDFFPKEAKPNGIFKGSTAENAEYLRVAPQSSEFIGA

Structure (SMILES) | IC50 [1] [µM] | IC50 (NCI-H1975 [2]; Homo sapiens, NCI-H1975, 48 h) [µM] | IC50 (A-431; Homo sapiens, A-431, 48 h) [µM] | IC50 [3] [µM] | IC50 (L02; Homo sapiens, L02, 48 h) [µM] | IC50 (A549; Homo sapiens, A549, 48 h) [µM] | IC50 [4] [µM] | IC50 (HCC827; Homo sapiens, HCC827, 48 h) [µM] | IC50 (NCI-H1975 [2]; nci-h1975) [µM] | IC50 (A-431; a-431) [µM] | IC50 (HCC827; hcc827) [µM] | other results
CC1(C)OOC2(CCC(C(=O)Nc3ccc4ncnc(Nc5cccc(Cl)c5)c4c3)CC2)OO1 | > 10 | 1.77 | 19.6 | 0.0114 | 25.8 | 3.62 | 0.0171 | 0.26 |  |  |  | 
O=C(Nc1ccc2nccc(Nc3cccc(Cl)c3)c2c1)C1CCC2(CC1)OCC1(OO2)C2CC3CC(C2)CC1C3 (stereo not given) | > 10 | > 50 | > 50 | 0.169 | > 100 | 26.1 | 0.132 | 31.6 |  |  |  | Activity (NCI-H1975 [5]): inactive
O=C(Nc1ccc2ncnc(Nc3cccc(Cl)c3)c2c1)C1CCC2(CC1)OCC1(OO2)C2CC3CC(C2)CC1C3 (stereo in doubt; 8) |  |  |  | 0.117 |  |  | 0.175 |  | 48.5 | 23.1 | 10.7 | IC50 (A549; a549): 24.7 µM
COc1cc2ncnc(Nc3ccc(F)c(Cl)c3)c2cc1OCCCN1CCOCC1 |  |  |  |  |  |  |  |  |  |  |  | Activity (NCI-H1975 [6]): inactive
O=C(Nc1ccc2ncnc(Nc3cccc(Cl)c3)c2c1)C1CCC2(CC1)OCC1(OO2)C2CC3CC(C2)CC1C3 (stereo in doubt; 7) | > 10 |  | 22 | 0.0947 | > 100 | 18 | 0.112 |  | 21.3 |  | 5.09 | 
O=C(Nc1ccc2nccc(Nc3cccc(Cl)c3)c2c1)C1CCC2(CC1)OOC1(O2)C2CC3CC(C2)CC1C3 (stereo in doubt; 13) | > 10 | 33.4 |  | 0.178 | 25.5 | 25.3 | 0.236 | 12 |  | > 50 |  | 
Nc1ccc2ncnc(Nc3cccc(Cl)c3)c2c1 |  |  |  |  |  |  |  |  | > 50 | > 50 | 0.1 | IC50 (L02; l02): > 100 µM; IC50 (A549; a549): > 100 µM
O=C(Nc1ccc2ncnc(Nc3cccc(Cl)c3)c2c1)C1CCCCC1 | > 10 | 41.8 | > 50 | 0.00613 | > 50 | 6.36 | 0.00696 | 2.55 |  |  |  | 
O=C(Nc1ccc2nccc(Nc3cccc(Cl)c3)c2c1)C1CCC2(CC1)OOC1(O2)C2CC3CC(C2)CC1C3 (stereo in doubt; 14) |  |  |  | 0.128 |  |  | 0.146 |  | 22.3 | 13.6 | 17 | IC50 (L02; l02): > 50 µM; IC50 (A549; a549): 18.3 µM
O=C(Nc1ccc2ncnc(Nc3cccc(Cl)c3)c2c1)C1CCC2(CC1)OOC1(O2)C2CC3CC(C2)CC1C3 (stereo not given) | > 10 | 13 | 31.5 | 0.0324 | 18.2 | 8.45 | 0.0489 | 2.29 |  |  |  | 
O=C(Nc1ccc2ncnc(Nc3cccc(Cl)c3)c2c1)C1CCC2(CC1)OOC1(OO2)C2CC3CC(C2)CC1C3 (stereo not given) | > 10 | 3.06 | 8.06 | 0.38 | 5.7 | 0.92 | 0.374 | 0.31 |  |  |  | Flu intensity (NCI-H1975 [7]): 3.53; Activity (NCI-H1975 [8]): 4.57%; Activity (NCI-H1975 [9]): 4.26%; Activity (NCI-H1975 [10]): 12.7%; Activity (NCI-H1975 [11]): 7.56%; Activity (NCI-H1975 [12]): Active; Activity (NCI-H1975 [13]): 8.12%; Activity (NCI-H1975 [14]): 7.54%; Activity (NCI-H1975 [15]): 83.5%; Activity (NCI-H1975 [16]): 9.31%; Flu intensity (NCI-H1975 [17]): 2.59; Flu intensity (NCI-H1975 [18]): 6.42; Activity (NCI-H1975 [19]): Dose-dependent effect; Activity (NCI-H1975 [20]): Dose-dependent effect; Activity (NCI-H1975 [21]): 19.8%; Activity (NCI-H1975 [22]): 74.2%; Activity (NCI-H1975 [23]): 7.47%; Activity (NCI-H1975 [24]): 52.2%
O=C(O)C1CCC2(CC1)OOC1(OO2)C2CC3CC(C2)CC1C3 (stereo not given) | > 10 | > 50 | > 100 | > 10 | > 100 | > 100 | > 10 | > 50 |  |  |  | 
O=C(Nc1ccc2ncnc(Nc3cccc(Cl)c3)c2c1)C1CCC2(CC1)OOC1(CCCCC1)OO2 | > 10 | 0.89 | 3.99 | 0.0838 | 1.43 | 0.87 | 0.112 | 0.05 |  |  |  | 
